Assay results from patent publication US20220402917A1, “COMPOUND AS SMALL MOLECULE INHIBITOR PD-1/PD-L1 AND APPLICATION THEREOF” (MEDSHINE DISCOVERY INC., priority 2019, published 2022).

Tests used:
PD1/PD-L1 = PD1/PD-L1 (Homo sapiens, UniProt Q9NZQ7); assay: PD-1/PD-L1 homogeneous time-resolved fluorescence (HTRF) binding experiment; parameters: purchased BPS Biosciences; details: HTRF (TR-FRET), PD-L1-biotin, PD1-Eu
Excerpt: Experimental Example 1: PD-1/PD-L1 Homogenouse Time-Resolved Fluorescence (HTRF) Binding Experiment
When the PD-1 molecule as the donor is very close to the PD-L1 molecule as the acceptor, the donor molecule will transfer the energy to the receptor molecule, which in turn causes the receptor molecule to emit fluorescence. The ability of small molecules to prevent the binding of PD-L1 to PD-1 can be tested by detecting the intensity of fluorescence. A homogeneous time-resolved fluorescence (HTRF) binding experiment is used to detect the ability of the compounds of the present disclosure to inhibit the binding of PD-1/PD-L1.
PD1/PD-L1 TR-FRET detection kit was purchased from BPS Biosciences. Nivo multi-label analyzer (PerkinElmer).
PD1-Eu, Dye-labeled acceptor, PD-L1-biotin and compounds to be tested were diluted with the buffer in the kit. The compounds to be tested were subjected to 5-fold dilution to eight concentration gradients with a row gun. That is, from 40 μM to 0.5 nM, the DMSO concentration was 4%, and a double-well experiment was set up. 5 μL of inhibitor with each concentration gradient were added to the microwell plate, and 5 μL buffer containing 4% DMSO and 5 μL PD-L1-biotin (PD-L1-biotin) (60 nM) were added into well with the maximum signal (Max) and the well with the minimum signal (Min), only 5 μL of buffer was added to the well with the minimum signal (Min), and the incubation was conducted at 25° C. for 20 minutes. After the incubation was completed, 5 μL of diluted PD1-Eu (10 nM) and […] were added to each well. The reaction system was placed at 25° C. for 90 minutes. The TR-FRET signal was read by a multi-label analyzer after the reaction was completed.
Using the equation (sample−Min)/(Max−Min)×100% to convert the raw data into inhibition rate, and the IC50 value can be obtained by curve fitting with four parameters (obtained from log(inhibitor) vs. response—Variable slope mode in GraphPad Prism). Table 1 provides the inhibitory activity of the compounds of the examples of the present disclosure on PD1/PD-L1 binding

[1] = Pharmacokinetic test in C57BL/6 mice; assay type: in vivo; details: mouse, plasma, male C57BL/6 mice
Procedure: Experimental Example 4: Pharmacokinetic Test
Experimental purpose: To study the pharmacokinetics of compounds in C57BL/6 mice.
Experimental materials: C57BL/6 mice (male, 8 weeks old, body weight 25 g-30 g)
Experimental operation: The pharmacokinetic characteristics of rodents after intravenous (IV) and oral (PO) administration of compounds were tested in standard protocols. In the experiment, the candidate compounds were formulated into 1 mg/mL clear solutions, and administered to mice via a single intravenous injection and oral administration. The vehicle of intravenous and oral administration was 5% DMSO/5% polyethylene glycol 15-hydroxystearate (Solutol)/90% aqueous solution. Four male C57BL/6 mice were used in the experiment, wherein two mice were administered intravenously at a dose of 1 mg/kg, and the plasma samples were collected 0.0833, 0.25, 0.5, 1, 2, 4, 6, 8 and 24 h after administration, the other two mice were given oral gavage at a dose of 10 mg/kg, and the plasma samples were collected 0.25, 0.5, 1, 2, 4, 6, 8, and 24 h after administration. Whole blood samples within 24 hours were collected, centrifuged at 3000 g for 15 minutes, and the supernatant was separated to obtain plasma samples. Acetonitrile solution containing internal standard was added thereto to precipitate proteins, the mixture was thoroughly mixed and centrifuged to obtain the supernatant for injection. The plasma concentration was quantified by LC-MS/MS analysis method, and the pharmacokinetic parameters were calculated, such as peak concentration (Cmax), clearance (CL), half-life (T1/2), […] (Vdss), area under the drug-time curve (AUC0-last), bioavailability (F) and so on.

PD1/PD-L1, sequence (Q9NZQ7 19-239 limits assumed): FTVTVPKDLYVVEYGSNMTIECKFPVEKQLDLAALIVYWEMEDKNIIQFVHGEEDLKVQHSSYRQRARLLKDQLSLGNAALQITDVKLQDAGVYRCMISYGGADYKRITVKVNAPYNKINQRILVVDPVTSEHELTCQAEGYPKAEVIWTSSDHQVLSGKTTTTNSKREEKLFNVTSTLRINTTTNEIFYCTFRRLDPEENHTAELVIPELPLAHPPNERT

COc1nc(-c2cccc(-c3cccc(NC(=O)c4cc(C)c5c(n4)CN(CCO)CC5)c3Cl)c2Cl)cnc1CN1CC(O)C1 [Compound 21]
IC50 (PD1/PD-L1): 7.14 nM
bioavailability ([1]; PO 10 mg/kg vs IV 1 mg/kg, read-out: Bioavailability F): 34.9%
Cmax ([1]; IV 1 mg/kg, PO 10 mg/kg (route not given for Cmax), read-out: Peak concentration Cmax): 117 nM
clearance ([1]; IV 1 mg/kg, read-out: Clearance CL): 98.4 mL/min/kg
half-life ([1]; IV 1 mg/kg, read-out: Half-life T1/2 (IV) (converted)): 11.6 h
Vd ([1]; IV 1 mg/kg, read-out: Tissue distribution Vdss): 65.6 L/kg
AUC(0-t) ([1]; PO 10 mg/kg, read-out: Area under the drug-time curve AUC0-last PO): 0.796 µM·h
